Test results reported in PubChem BioAssay (NCI).
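48-hour exposure; five concentrations; linearly interpolated endpoints. At the GI50, growth is halved. The concentration for full growth arrest is given as TGI.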

Key:
Assay in all cases: NCI tumour cell line growth inhibition, 48 h
UACC-257 melanoma = tested on: UACC-257 melanoma
SN12C renal = tested on: SN12C renal
ACHN renal = tested on: ACHN renal
HOP-62 NSCLC = tested on: HOP-62 NSCLC
NCI-H460 lung = tested on: NCI-H460 lung
EKVX NSCLC = tested on: EKVX NSCLC
OVCAR-8 ovarian = tested on: OVCAR-8 ovarian
K-562 leukemia = tested on: K-562 leukemia
SK-OV-3 ovarian = tested on: SK-OV-3 ovarian
OVCAR-3 ovarian = tested on: OVCAR-3 ovarian
LOX IMVI melanoma = tested on: LOX IMVI melanoma
MALME-3M melanoma = tested on: MALME-3M melanoma
HCC-2998 colon = tested on: HCC-2998 colon
SK-MEL-28 melanoma = tested on: SK-MEL-28 melanoma
NCI-H23 lung = tested on: NCI-H23 lung
HCT-116 colon = tested on: HCT-116 colon
IGROV1 ovarian = tested on: IGROV1 ovarian
CAKI-1 renal = tested on: CAKI-1 renal
786-0 renal = tested on: 786-0 renal
KM12 colon = tested on: KM12 colon
U251 CNS = tested on: U251 CNS
TK-10 renal = tested on: TK-10 renal
SK-MEL-2 melanoma = tested on: SK-MEL-2 melanoma
SF-268 CNS = tested on: SF-268 CNS
MDA-MB-231 breast = tested on: MDA-MB-231 breast
MOLT-4 leukemia = tested on: MOLT-4 leukemia
HOP-92 NSCLC = tested on: HOP-92 NSCLC
HS 578T breast = tested on: HS 578T breast
BT-549 breast = tested on: BT-549 breast
OVCAR-5 ovarian = tested on: OVCAR-5 ovarian
A549 NSCLC = tested on: A549 NSCLC
NCI/ADR-RES ovarian = tested on: NCI/ADR-RES ovarian
SNB-19 CNS = tested on: SNB-19 CNS
SF-295 CNS = tested on: SF-295 CNS
SW-620 colon = tested on: SW-620 colon
MCF7 breast = tested on: MCF7 breast
SK-MEL-5 melanoma = tested on: SK-MEL-5 melanoma
SNB-75 CNS = tested on: SNB-75 CNS
HL-60(TB) leukemia = tested on: HL-60(TB) leukemia
COLO 205 colon = tested on: COLO 205 colon
M14 melanoma = tested on: M14 melanoma
NCI-H522 lung = tested on: NCI-H522 lung
MDA-MB-435 = tested on: MDA-MB-435
SR leukemia = tested on: SR leukemia
OVCAR-4 ovarian = tested on: OVCAR-4 ovarian
T-47D breast = tested on: T-47D breast
UACC-62 melanoma = tested on: UACC-62 melanoma
CCRF-CEM leukemia = tested on: CCRF-CEM leukemia
UO-31 renal = tested on: UO-31 renal
PC-3 prostate = tested on: PC-3 prostate
HT29 colon = tested on: HT29 colon
DU-145 prostate = tested on: DU-145 prostate
A498 renal = tested on: A498 renal
NCI-H226 lung = tested on: NCI-H226 lung
HCT-15 colon = tested on: HCT-15 colon
SF-539 CNS = tested on: SF-539 CNS

`CC(Nc1c(C#N)cnc2ccc(-c3cncc(O)c3)cc12)c1ccccc1` (configuration not stated) gave a GI50 (UACC-257 melanoma) of 4.32 µM, a TGI (UACC-257 melanoma) of 45.6 µM and a GI50 (SN12C renal) of 721 nM. For the same compound, the TGI (SN12C renal) was 6.68 µM, the GI50 (ACHN renal) was 1400 nM and the TGI (ACHN renal) was 10.7 µM. The GI50 (HOP-62 NSCLC) was 2390 nM, the TGI (HOP-62 NSCLC) was 16 µM and the GI50 (NCI-H460 lung) was 2570 nM. For the same compound, the TGI (NCI-H460 lung) was 11.4 µM, the GI50 (EKVX NSCLC) was 2070 nM and the TGI (EKVX NSCLC) was 12.6 µM. The GI50 (OVCAR-8 ovarian) was 1830 nM, the TGI (OVCAR-8 ovarian) was 15.4 µM and the GI50 (K-562 leukemia) was 2510 nM. It also gave a TGI (K-562 leukemia) of over 100 µM, a GI50 (SK-OV-3 ovarian) of 3.38 µM and a TGI (SK-OV-3 ovarian) of 10.7 µM. The GI50 (OVCAR-3 ovarian) was 1050 nM, the TGI (OVCAR-3 ovarian) was 5.84 µM and the GI50 (LOX IMVI melanoma) was 1310 nM. The TGI (LOX IMVI melanoma) was 8.51 µM, the GI50 (MALME-3M melanoma) was 407 nM and the TGI (MALME-3M melanoma) was 3.4 µM. It also gave a GI50 (HCC-2998 colon) of 3.73 µM, a TGI (HCC-2998 colon) of 14.8 µM and a GI50 (SK-MEL-28 melanoma) of 1860 nM. For the same compound, the TGI (SK-MEL-28 melanoma) was 10.8 µM, the GI50 (NCI-H23 lung) was 1860 nM and the TGI (NCI-H23 lung) was 7.88 µM. It also gave a GI50 (HCT-116 colon) of 2400 nM, a TGI (HCT-116 colon) of 12.4 µM and a GI50 (IGROV1 ovarian) of 948 nM. It also gave a TGI (IGROV1 ovarian) of 3.91 µM, a GI50 (CAKI-1 renal) of 2240 nM and a TGI (CAKI-1 renal) of 13.5 µM. The GI50 (786-0 renal) was 2740 nM, the TGI (786-0 renal) was 10.4 µM and the GI50 (KM12 colon) was 3.09 µM. It also gave a TGI (KM12 colon) of 12.2 µM, a GI50 (U251 CNS) of 1880 nM and a TGI (U251 CNS) of 17.1 µM. The GI50 (TK-10 renal) was 4.45 µM, the TGI (TK-10 renal) was 50 µM and the GI50 (SK-MEL-2 melanoma) was 2030 nM. The TGI (SK-MEL-2 melanoma) was 6.44 µM, the GI50 (SF-268 CNS) was 1990 nM and the TGI (SF-268 CNS) was 12 µM. For the same compound, the GI50 (MDA-MB-231 breast) was 1670 nM, the TGI (MDA-MB-231 breast) was 11.9 µM and the GI50 (MOLT-4 leukemia) was 2110 nM. The TGI (MOLT-4 leukemia) was over 100 µM, the GI50 (HOP-92 NSCLC) was 409 nM and the TGI (HOP-92 NSCLC) was 6.02 µM. For the same compound, the GI50 (HS 578T breast) was 1080 nM, the TGI (HS 578T breast) was 4.82 µM and the GI50 (BT-549 breast) was 547 nM. For the same compound, the TGI (BT-549 breast) was 4.54 µM, the GI50 (OVCAR-5 ovarian) was 4.3 µM and the TGI (OVCAR-5 ovarian) was 30.7 µM. The GI50 (A549 NSCLC) was 3.57 µM, the TGI (A549 NSCLC) was 47.3 µM and the GI50 (NCI/ADR-RES ovarian) was 3.36 µM. The TGI (NCI/ADR-RES ovarian) was 23.5 µM, the GI50 (SNB-19 CNS) was 1900 nM and the TGI (SNB-19 CNS) was 7.66 µM. For the same compound, the GI50 (SF-295 CNS) was 2870 nM, the TGI (SF-295 CNS) was 11.7 µM and the GI50 (SW-620 colon) was 3.56 µM. The TGI (SW-620 colon) was 11.4 µM, the GI50 (MCF7 breast) was 1910 nM and the TGI (MCF7 breast) was 10.2 µM. It also gave a GI50 (SK-MEL-5 melanoma) of 1240 nM, a TGI (SK-MEL-5 melanoma) of 2570 nM and a GI50 (SNB-75 CNS) of 961 nM. For the same compound, the TGI (SNB-75 CNS) was 17.6 µM, the GI50 (HL-60(TB) leukemia) was 4.22 µM and the TGI (HL-60(TB) leukemia) was over 100 µM. It also gave a GI50 (COLO 205 colon) of 14.9 µM, a TGI (COLO 205 colon) of 36.1 µM and a GI50 (M14 melanoma) of 2080 nM. It also gave a TGI (M14 melanoma) of 11.6 µM, a GI50 (NCI-H522 lung) of 2310 nM and a TGI (NCI-H522 lung) of 13.5 µM. For the same compound, the GI50 (MDA-MB-435) was 2940 nM, the TGI (MDA-MB-435) was 15.5 µM and the GI50 (SR leukemia) was 2260 nM. It also gave a TGI (SR leukemia) of over 100 µM, a GI50 (OVCAR-4 ovarian) of 1590 nM and a TGI (OVCAR-4 ovarian) of 9.49 µM. It also gave a GI50 (T-47D breast) of 1680 nM, a TGI (T-47D breast) of 13.8 µM and a GI50 (UACC-62 melanoma) of 1700 nM. The TGI (UACC-62 melanoma) was 4.16 µM, the GI50 (CCRF-CEM leukemia) was 2400 nM and the TGI (CCRF-CEM leukemia) was over 100 µM. It also gave a GI50 (UO-31 renal) of 408 nM, a TGI (UO-31 renal) of 5.61 µM and a GI50 (PC-3 prostate) of 1650 nM. The TGI (PC-3 prostate) was over 100 µM, the GI50 (HT29 colon) was 18.1 µM and the TGI (HT29 colon) was over 100 µM. For the same compound, the GI50 (DU-145 prostate) was 1480 nM, the TGI (DU-145 prostate) was 10.6 µM and the GI50 (A498 renal) was 2720 nM. The TGI (A498 renal) was 18 µM, the GI50 (NCI-H226 lung) was 1990 nM and the TGI (NCI-H226 lung) was 13.2 µM. It also gave a GI50 (HCT-15 colon) of 1690 nM, a TGI (HCT-15 colon) of 11.5 µM and a GI50 (SF-539 CNS) of 2140 nM. The TGI (SF-539 CNS) was 11 µM.
